From patent publication US20160256466A1, “PI3K INHIBITOR FOR TREATMENT OF RESPIRATORY DISEASE” (GLAXOSMITHKLINE INTELLECTUAL PROPERTY DEVELOPMENT LIMITED, priority 2013, published 2016)
Structures can show the parent of a compound that is named as a salt.

Key:
[1] = tested on: lung gene expression; assay: Affymetrix GeneChip lung gene expression in S. Pneumoniae-infected mice; assay type: in vivo, C57BL/6 mice; settings: 0.2 mg/kg intranasal twice daily; lungs at various timepoints after S. Pneumoniae-infection; genes significantly altered (minimum 1.5 fold-change; p<0.05) compared to vehicle controls; n=6
Procedure: (§1) Germ-free C57BL/6 male and female mice aged 10-12 weeks were intranasally administered with 0.2%Tween-80/saline vehicle or 0.2 mg/kg micronized 6-(1H-indol-4-yl)-4-(5-{[4-(1-methylethyl)-1-piperazinyl]methyl}-1,3-oxazol-2-yl)-1H-indazole hydrochloride in the same vehicle. Compound dosing was carried out twice daily for eleven days under anaesthesia using 3% isoflurane for induction and 2% isoflurane for maintenance. At the start of day two, and one hour after administering 6-(1H-indol-4-yl)-4-(5-{[4-(1-methylethyl)-1-piperazinyl]methyl}-1,3-oxazol-2-yl)-1H-indazole hydrochloride or vehicle, mice were anaesthetized with isoflurane as above and infected intranasally with 1×10^7 CFU of S. pneumoniae strain TIGR4. S. Pneumoniae was obtained and prepared as described previously (see, for example, Infect. Immun. December 2011; 79(12): 4965-4976) and given in an inoculum of 50 μl PBS per mouse. Mice were monitored three times daily and assessed using a defined mortality-endpoint, where mice displaying three or more of the limiting clinical signs stated in Home Office Project Licence PPL 70/7661 were culled.
Each band corresponds to a single probe and intensity signifies fold change, as indicated in the legend.

[2] = tested on: S. pneumoniae strain TIGR4; assay: Streptococcus pneumoniae infection in mice, survival by defined mortality-endpoint; assay type: in vivo, C57BL/6 mice; settings: 0.2 mg/kg micronized, intranasal, twice daily for eleven days; infected intranasally with 1×10^7 CFU; compared to vehicle controls; n=60; Mantel-Cox test **p<0.005
Procedure: as §1

SMILES: CC(C)N1CCN(Cc2cnc(-c3cc(-c4cccc5[nH]ccc45)cc4[nH]ncc34)o2)CC1 [6-(1H-Indol-4-yl)-4-(5-{[4-(1-methylethyl)-1-piperazinyl]methyl}-1,3-oxazol-2-yl)-1H-indazole hydrochloride]
- lung gene expression [1]: altered lung gene expression
- defined mortality-endpoint (percentage survival) [2]: reduced a defined mortality-endpoint
